Assay: Solubility in dilution solvent (PGMEA)
Format: physicochemical
Conditions: 25° C., 100 rpm, 1 hour
Procedure: A dilution solvent (PGMEA) is respectively added to 0.5 g of each compound according to Synthesis Examples 6 to 13 and Comparative Synthesis Examples 1 and 2, and each solution is agitated with a mixrotor (Mixrotor VMR-5, Iuchi Seieido Co., Ltd.) at 25° C. and 100 rpm for 1 hour, and solubility result of each compound is provided in Table 1. Solubility Evaluation Reference Dissolution of a compound (a solute) in an amount of greater than or equal to 10 wt % based on the total weight of the dilution solvent: ∘ Dissolution of a compound (a solute) in an amount ranging from greater than or equal 5 wt % and less than 10 wt % based on the total weight of the dilution solvent: Δ Dissolution of a compound (a solute) in an amount ranging from less than 5 wt % based on the total weight of the dilution solvent: X

SMILES	Solubility
CCCCCOc1c(Cl)c(Cl)c2c(c1Cl)C1=NC/2=N\c2c3c(Cl)c(Cl)c(OCCCCC)c(Cl)c3c3[n]2[Zn][n]2/c(c4c(Cl)c(Cl)c(OCCCCC)c(Cl)c4/c2=N/1)=N\C1=NC(=N\3)/c2c(Cl)c(Cl)c(OCCCCC)c(Cl)c21 [Comparative Synthesis Example 2]	Δ (Dissolution of a compound (a solute) in an amount ranging from greater than or equal 5 wt % and less than 10 wt % based on the total weight of the dilution solvent)
Clc1c(Cl)c2c(c(Cl)c1Oc1ccccc1)/C1=N/c3c4c(Cl)c(Cl)c(Oc5ccccc5)c(Cl)c4c4[n]3[Zn][n]3/c(c5c(Cl)c(Cl)c(Oc6ccccc6)c(Cl)c5/c3=N/C2=N1)=N\C1=NC(=N\4)/c2c(Cl)c(Oc3ccccc3)c(Cl)c(Cl)c21 [Comparative Synthesis Example 1]	Δ (Dissolution of a compound (a solute) in an amount ranging from greater than or equal 5 wt % and less than 10 wt % based on the total weight of the dilution solvent)
